According to patent US9777045B2, “Immunogenic compositions and methods” (Longhorn Vaccines and Diagnostics, LLC, priority 2007, dated 2017):
“And” between values parts separate entries of the source, which are not always exact repeats. Equal entries are not always repeated. Where two headings read alike, the source gives them in different places.

Legend:
[1] = test system: live Wuhan (Influenza A/Wuhan/359/95, H3N2); experiment: ELISA for anti-Wuhan antibodies (mouse sera 1:100); format: in vivo, mice; details: for Absorbance values for individual sera tested on influenzavirus strain Wuhan, Pre: pre-bleed; for Absorbance values for individual sera tested on influenzavirus strain Wuhan, Pre / Anti-Wuhan Absorbance Day 42 (individual mice) / Anti-Wuhan Absorbance Pre-Bleed (individual mice) / Anti-Wuhan Absorbance Day 42 (group average) / Anti-Wuhan Absorbance Pre-Bleed (group average): sera 1:100; for Anti-Wuhan Absorbance Day 42 (group average) / Anti-Wuhan Absorbance Pre-Bleed (group average): averaged results
[2] = test system: peptide corresponding to the peptide-BSA conjugate used for injection; experiment: ELISA for anti-peptide antibodies (individual mouse sera 1:100); format: in vivo, mice; details: for Average Absorbance Values of sera for tested peptides, Day 14 / Average Absorbance Values of sera for tested peptides, Day 29 / Average Absorbance Values of sera for tested peptides, Day 42 / Average Absorbance Values of sera for tested peptides, Pre: group average; for Average Absorbance Values of sera for tested peptides, Day 14 / Average Absorbance Values of sera for tested peptides, Day 29 / Average Absorbance Values of sera for tested peptides, Day 42 / Average Absorbance Values of sera for tested peptides, Pre / Individual absorbancy values of sera for tested peptides, Day 14 / Individual absorbancy values of sera for tested peptides, Day 29 / Individual absorbancy values of sera for tested peptides, Day 42: mice; for Average Absorbance Values of sera for tested peptides, Pre / Individual absorbancy values of sera for tested peptides, Pre: pre-bleed; for Individual absorbancy values of sera for tested peptides, Pre: mice injected with peptide-BSA conjugate, absorbance 450 nm; for Individual absorbancy values of sera for tested peptides, Pre / Individual absorbancy values of sera for tested peptides, Day 14 / Individual absorbancy values of sera for tested peptides, Day 29 / Individual absorbancy values of sera for tested peptides, Day 42: sera 1:100
Method: Individual sera were tested at a final dilution of 1:100 (in PBS-T) on Nunc Maxisorp® plates coated with the peptide corresponding to the peptide-BSA conjugate used for injection, at a concentration of 1 μg/ml in PBS (100 μl/well). One hundred microliters of diluted sera were reacted on the coated plate for 30 to 60 min at room temperature, and unbound material was removed by washing three times with PBS-T. Anti-peptide antibodies were detected with peroxidase-labeled goat anti-mouse IgG (γ-specific), diluted 1:10000 in PBS-T (100 μl/well; Jackson ImmunoResearch Laboratories, Inc., West Grove, Pa., USA). Following 30-min incubation, the wells were washed five times with PBS-T to removed unbound material and 100 μl of substrate (TMB; Kirkegaard & Perry Laboratories, Inc., Gaithersburg, Md., USA) was added to each well. The reaction was allowed to proceed for 15 min in the dark and stopped by addition of 100 μl of TMB Stop Solution per well (Kirkegaard & Perry). Absorbance was determined at 450 nm.

[3] = test system: IL-4 induction in splenocytes; format: cell-based; details: mice immunized with peptide-BSA conjugates; 72 h in vitro treatment
[4] = test system: Influenza H1N1, H3N2, and H5N1; details: in vivo
live H3N2 virus = format: in vivo, cotton rats (Sigmodon hispidus); details: rat, in vivo
Influenza H3N2 (Wuhan) = test system: Influenza H3N2 (Wuhan); set-up: species or system cotton rats (Sigmodon hispidus); details: rat, in vivo
live H1N1 virus = test system: live H1N1 virus; set-up: species or system cotton rats (Sigmodon hispidus); details: rat, in vivo
[5] = test system: IFN-γ induction in splenocytes; format: cell-based; details: mice immunized with peptide-BSA conjugates, 72 h in vitro treatment

Row | Substance | Absorbance values for individual sera tested on influenzavirus strain Wuhan, Pre ([1]; mice, 5 μg per injection) | Absorbance values for individual sera tested on influenzavirus strain Wuhan, Pre ([1]; mice, 20 μg per injection) | Anti-Wuhan Absorbance Day 42 (individual mice) ([1]; dose per inject 5 μg) | Anti-Wuhan Absorbance Pre-Bleed (individual mice) ([1]; dose per inject 5 μg) | Anti-Wuhan Absorbance Day 42 (individual mice) ([1]; dose per inject 20 μg) | Anti-Wuhan Absorbance Pre-Bleed (individual mice) ([1]; dose per inject 20 μg) | Anti-Wuhan Absorbance Day 42 (group average) ([1]; dose per injection 5 μg) | Anti-Wuhan Absorbance Pre-Bleed (group average) ([1]; dose per injection 5 μg) | Anti-Wuhan Absorbance Day 42 (group average) ([1]; dose per injection 20 μg) | Anti-Wuhan Absorbance Pre-Bleed (group average) ([1]; dose per injection 20 μg) | Average Absorbance Values of sera for tested peptides, Day 14 ([2]; 5 μg per injection) | Average Absorbance Values of sera for tested peptides, Day 29 ([2]; 5 μg per injection) | Average Absorbance Values of sera for tested peptides, Day 42 ([2]; 5 μg per injection) | Average Absorbance Values of sera for tested peptides, Pre ([2]; 5 μg per injection) | Average Absorbance Values of sera for tested peptides, Day 14 ([2]; 20 μg per injection) | Average Absorbance Values of sera for tested peptides, Day 29 ([2]; 20 μg per injection) | Average Absorbance Values of sera for tested peptides, Day 42 ([2]; 20 μg per injection) | Average Absorbance Values of sera for tested peptides, Pre ([2]; 20 μg per injection) | Individual absorbancy values of sera for tested peptides, Pre ([2]; 5 μg per injection) | Individual absorbancy values of sera for tested peptides, Pre ([2]; 20 μg per injection) | also measured
1 | GNLFIAPGNLFIAPQYIKANSKFIGITEGNLFIAP [Peptide 5907] | 0.084 and 0.062 and 0.068 and 0.063 | 0.097 and 0.102 and 0.071 and 0.091 | 0.212 and 0.082 and 0.250 and 0.039 | 0.084 and 0.062 and 0.068 and 0.063 | 0.394 and 0.174 and 0.119 and 0.224 | 0.087 and 0.102 and 0.071 and 0.091 | 0.146 | 0.069 | 0.227 | 0.088 | 0.077 | 0.107 | 0.134 | 0.078 | 0.080 | 0.097 | 0.165 | 0.083 | 0.080 and 0.073 and 0.084 and 0.075 | 0.065 and 0.077 and 0.082 and 0.108 | Individual absorbancy values of sera for tested peptides, Day 14 ([2]; 5 μg per injection): 0.096 and 0.061 and 0.079 and 0.073; Individual absorbancy values of sera for tested peptides, Day 29 ([2]; 5 μg per injection): 0.160 and 0.098 and 0.099 and 0.071; Individual absorbancy values of sera for tested peptides, Day 42 ([2]; 5 μg per injection): 0.165 and 0.099 and 0.139; Individual absorbancy values of sera for tested peptides, Day 14 ([2]; 20 μg per injection): 0.069 and 0.072 and 0.088 and 0.090; Individual absorbancy values of sera for tested peptides, Day 29 ([2]; 20 μg per injection): 0.073 and 0.080 and 0.141 and 0.093; Individual absorbancy values of sera for tested peptides, Day 42 ([2]; 20 μg per injection): 0.114 and 0.161 and 0.230 and 0.156; IL-4 response of spleen cell supernatants (in words) [3]: below the result of the untreated control; immune response against Influenza H1N1, H3N2, and H5N1 [4]: raises an immune response
2 | SLLTEVETPIRNEWGLLTEVETPIRQYIKANSKFIGITE [PF2001] |  |  |  |  |  |  |  |  |  |  |  |  |  |  |  |  |  |  |  |  | IgG titers to live H3N2 virus (ELISA) (live H3N2 virus): superior to two injections of M2e; IgG to live H3N2 virus after peptide boost of primed animals (ELISA) (live H3N2 virus): equivalent titer to group 6; viral inhibitory antibody to H3N2 after peptide boost (Influenza H3N2 (Wuhan)): boosted viral inhibitory antibody to H3N2; IgG antibody against live H1N1 virus (ELISA) (live H1N1 virus): IgG antibody rises were also induced
3 | GNLFIAP [Peptide 5910] | 0.076 and 0.092 and 0.068 and 0.109 | 0.069 and 0.070 and 0.071 and 0.092 | 0.449 and 0.341 and 0.288 and 0.088 | 0.076 and 0.092 and 0.068 and 0.109 | 0.546 and 0.096 and 0.271 and 0.385 | 0.069 and 0.070 and 0.071 and 0.092 | 0.291 | 0.086 | 0.324 | 0.075 | 0.113 | 0.140 | 0.318 | 0.154 | 0.102 | 0.202 | 0.237 | 0.083 | 0.100 and 0.110 and 0.097 and 0.308 | 0.081 and 0.083 (2×) and 0.087 | antibody responses that bound to native influenza (whole H3 virus), day 42 vs before ([1]; mice, conjugates at 5-μg and 20-μg doses): good antibody responses; Individual absorbancy values of sera for tested peptides, Day 14 ([2]; 5 μg per injection): 0.089 and 0.090 and 0.086 and 0.186; Individual absorbancy values of sera for tested peptides, Day 29 ([2]; 5 μg per injection): 0.099 and 0.226 and 0.085 and 0.149; Individual absorbancy values of sera for tested peptides, Day 42 ([2]; 5 μg per injection): 0.123 and 0.306 and 0.680 and 0.162; Individual absorbancy values of sera for tested peptides, Day 14 ([2]; 20 μg per injection): 0.104 and 0.081 and 0.078 and 0.144; Individual absorbancy values of sera for tested peptides, Day 29 ([2]; 20 μg per injection): 0.296 and 0.077 and 0.133 and 0.302; Individual absorbancy values of sera for tested peptides, Day 42 ([2]; 20 μg per injection): 0.279 and 0.164 and 0.175 and 0.333; IFN-γ response of spleen cell supernatants (in words) [5]: strongest IFN-γ response; IFN-γ response of spleen cell supernatants (in words) ([5]; listed as GNLFIAP): good IFN-γ response
